Here are results for 14 compounds from patent US9096615B2, “Bridged bicyclic amino thiazine dioxide compounds as inhibitors of beta-secretase and methods of use thereof” (AMGEN INC., priority 2013, dated 2015).

Where two headings read alike, the source gives them in different places.

The target in one assay is T1, Cathepsin D (Cat D) (Homo sapiens, UniProt P07339).
T1 construct: made in house; host or cells: CHO cells
The assay is described as follows: In vitro enzymatic Cathepsin D (Cat D) FRET assay. It counts as biochemical. The note with it: read-out: CatD IC50. As to the method: In Vitro Enzymatic Cathepsin D (Cat D) FRET (Fluorescence Resonance Energy Transfer) Assay
Recombinant Cat D was expressed in CHO cells. The assay buffer for CathepsinD is 0.05 M citrate pH 3.5, 10% DMSO final, 5 mM CHAPS. The Cat D enzyme (9 nM) is pre-incubated for one hour with inhibitors, typically in about 1 uL of DMSO according to a serial dilution, is added thereto. The assays are effectively started by the addition of different FRET substrates (20 nM for Cat D) and the combination is incubated for one hour. The FRET assay is terminated with by addition of Tris buffer, which raises the pH to neutrality, and the fluorescence is determined. The FRET substrate is a peptide with commercially available fluorophore and quencher, on opposite sides of the BACE cleavage site. The Cat D substrate peptide sequence is based on sequence #1 of Table 1 from Gulnik et al. FEBS Letters v413 p 379-384 1997. Proteolytic cleavage of the FRET substrate releases quenching of fluorescence (Cat D excitation 500 nm and emission 580 nm). […]
Where available, the in-vitro Cat D FRET assay data for each of the Examples, conducted by the first procedure, is provided in Tables 1 and 3. For example, the compound of example 28 has a Cat D IC50 value of >400 uM.

Another assay has as its target BACE1 (Homo sapiens, UniProt P56817). Nature of the assay: In vitro enzymatic BACE FRET assay. Format: biochemical. As to the method: In Vitro Enzymatic BACE FRET (Fluorescence Resonance Energy Transfer) Assay
Enzyme Assay Data in the Example Table I
The assay buffer used in this screen is 0.05 M acetate, pH 4.2, 10% DMSO final, 100 uM genapol (which is a nonionic detergent, below its Critical Micelle Concentration). The Beta Secretase enzyme (0.2 nM) is pre-incubated for one hour with inhibitors, typically in about 1 uL of DMSO according to a serial dilution, are added thereto. This assay is effectively started by the addition of FRET substrate (50 nM) and the combination is incubated for one hour. The FRET assay is terminated with by addition of Tris buffer, which raises the pH to neutrality, and the fluorescence is determined. The FRET substrate is a peptide with commercially available fluorophore and quencher, on opposite sides of the BACE cleavage site. Proteolytic cleavage of the FRET substrate releases quenching of fluorescence (excitation 488 nm and […]).

Assay [1] deals with Aβ40 in conditioned medium of cells stably expressing Amyloid Precursor Protein (APP). The assay is described as follows: In vitro BACE cell-based assay (HEK cell assay, Aβ40 sandwich ELISA). The note with it: Homo sapiens, HEK293. As to the method:
In Vitro BACE Cell-Based Assay
The cell-based assay measures inhibition or reduction of Aβ40 in conditioned medium of test compound treated cells expressing amyloid precursor protein.
Cells stably expressing Amyloid Precursor Protein (APP) were plated at a density of 40K cells/well in 96 well plates (Costar). The cells were cultivated for 24 hours at 37° C. and 5% CO2 in DMEM supplemented with 10% FBS. The test compounds were then added to cells in 10-point dose response concentrations with the starting concentration being either 100 μM or 10 μM. The compounds were diluted from stock solutions in DMSO and the final DMSO concentration of the test compounds on cells was 0.1%. After 24 h of incubation with the test compounds the supernatant conditioned media was collected and the Aβ 40 levels were determined using a sandwich ELISA. The IC50 of the compound was calculated from the percent of control or percent inhibition of Aβ 40 as a function of the concentration of the test compound.
The sandwich ELISA to detect Aβ 40 was performed in 96 well microtiter plates, which were pre-treated with goat anti-rabbit IgG (Pierce). The capture and detecting antibody pair that were used to detect Aβ 40 from cell supernatants were affinity purified pAb40 (Biosource) and biotinylated 6E10 (Signet Labs Inc.), respectively. The optimal concentration for the pAb40 antibody was 3 μg/ml in Superblock/TBS (Pierce) that was supplemented with 0.05% Tween 20 (Sigma). Optimal concentration for the detection antibody 6E10-biotinylated was 0.5 μg/ml in Superblock/TBS (Pierce) that had been supplemented with 2% normal goat serum and 2% normal mouse serum.
Cellular supernatants were incubated with the capture antibody for 3 h at 4° C., followed by 3 wash steps in TBS-tween (0.05%). The detecting antibody incubation was for 2 h at 4° C., again followed by the wash steps as described previously. The final readout of the ELISA is Time-Resolved Fluorescence (counts per minute) using Delfia reagents Streptavidin-Europium and Enhancement solutions (Perkin Elmer) and the Victor 2 multilabel counter (Perkin Elmer).

[2] abbreviates: read-out: BACE1 FRET assay IC50.
Setting [3] is: Aβ40, 24 h incubation, read-out: HEK cell assay IC50.
[4] abbreviates: average IC50, read-out: BACE1 Enzyme assay IC50.
Where [5] appears, read: average IC50, read-out: BACE1 cell assay IC50.

Chain of BACE1 (P56817 46-501, species assumed): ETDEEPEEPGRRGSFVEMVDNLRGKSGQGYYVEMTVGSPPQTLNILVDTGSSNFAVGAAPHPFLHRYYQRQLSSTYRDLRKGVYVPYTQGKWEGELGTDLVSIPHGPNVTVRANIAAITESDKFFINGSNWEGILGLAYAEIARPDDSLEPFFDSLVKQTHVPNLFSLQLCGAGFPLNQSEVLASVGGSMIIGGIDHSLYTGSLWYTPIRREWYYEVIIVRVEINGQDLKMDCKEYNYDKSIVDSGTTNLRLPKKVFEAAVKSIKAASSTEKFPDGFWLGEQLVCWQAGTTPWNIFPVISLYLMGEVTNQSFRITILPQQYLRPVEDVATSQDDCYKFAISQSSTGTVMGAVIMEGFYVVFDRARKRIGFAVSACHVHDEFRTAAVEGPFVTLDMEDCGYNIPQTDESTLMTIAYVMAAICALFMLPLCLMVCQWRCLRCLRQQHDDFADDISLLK
T1 sequence (P07339 65-412, species assumed): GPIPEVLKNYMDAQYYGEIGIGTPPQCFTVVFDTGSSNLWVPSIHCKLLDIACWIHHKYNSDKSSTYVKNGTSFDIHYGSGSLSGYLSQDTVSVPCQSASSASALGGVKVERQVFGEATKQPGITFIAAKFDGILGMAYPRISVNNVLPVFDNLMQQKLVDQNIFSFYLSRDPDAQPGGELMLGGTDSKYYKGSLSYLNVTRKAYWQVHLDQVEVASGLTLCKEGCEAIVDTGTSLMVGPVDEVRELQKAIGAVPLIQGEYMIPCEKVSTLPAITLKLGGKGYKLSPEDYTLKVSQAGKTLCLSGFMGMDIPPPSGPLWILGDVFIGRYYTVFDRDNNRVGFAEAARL

Take `Cc1cc(Cl)cnc1C(=O)Nc1ccc(F)c([C@@]2(C)N=C(N)[C@@]3(C)CCC[C@]2(C)S3(=O)=O)c1` [Example 11, N-(3-((1S,2R,5R)-4-Amino-1,2,5-trimethyl-9,9-dioxido-9-thia-3-azabicyclo[3.3.1]non-3-en-2-yl)-4-fluorophenyl)-5-chloro-3-methylpicolinamide]: the values for the concentration for half-maximal inhibition (IC50) (on Cathepsin D (Cat D); on BACE1 (setting [2]); in assay [1] (setting [3])) were 51.5 µM, 0.006 µM and 0.031 µM, respectively.

For the compound `Cc1cc(Cl)cnc1C(=O)Nc1ccc(F)c([C@@]2(C)N=C(N)[C@@]3(C)CC[C@]2(C)S3(=O)=O)c1` [Example 31, N-(3-((1S,2R,5R)-4-amino-1,2,5-trimethyl-8,8-dioxido-8-thia-3-azabicyclo[3.2.1]oct-3-en-2-yl)-4-fluorophenyl)-5-chloro-3-methylpicolinamide], the IC50 at Cathepsin D (Cat D) was 56.9 µM; at BACE1 (setting [2]) it was 0.004 µM; in assay [1] (setting [3]) it was 0.012 µM.

Take `Cc1cc(C(F)(F)F)cnc1C(=O)Nc1ccc(F)c([C@@]2(C)N=C(N)[C@]3(C)CC[C@H]2S3(=O)=O)c1` [Example 27, N-(3-((1R,2R,5S)-4-Amino-2,5-dimethyl-8,8-dioxido-8-thia-3-azabicyclo[3.2.1]oct-3-en-2-yl)-4-fluorophenyl)-3-methyl-5-(trifluoromethyl)picolinamide]: the IC50 stood at 2040 µM on Cathepsin D (Cat D), 0.014 µM at BACE1 (setting [2]) and 0.002 µM in assay [1] (setting [3]).

Regarding `C[C@]12CC[C@H]([C@@](C)(c3cc(Nc4ncnc5cc(Cl)cnc45)ccc3F)N=C1N)S2(=O)=O` [Example 131, N-(3-((1R,2R,5S)-4-amino-2,5-dimethyl-8,8-dioxido-8-thia-3-azabicyclo[3.2.1]oct-3-en-2-yl)-4-fluorophenyl)-7-chloropyrido[3,2-d]pyrimidin-4-amine], the IC50 on Cathepsin D (Cat D) (average IC50, first procedure) worked out at 482 µM; at BACE1 (setting [4]), 0.029 µM; in assay [1] (setting [5]), 0.018 µM.

Regarding `C[C@]1(c2cc(NC(=O)c3ccc(C#N)cn3)ccc2F)N=C(N)[C@@]2(CF)CC[C@@H]1S2(=O)=O` [Example 111, N-(3-((1S,2R,5R)-4-amino-5-(fluoromethyl)-2-methyl-8,8-dioxido-8-thia-3-azabicyclo[3.2.1]oct-3-en-2-yl)-4-fluorophenyl)-5-cyano-2-pyridinecarboxamide], the IC50 on Cathepsin D (Cat D) (average IC50, first procedure) was found to be 957 µM; on BACE1 (setting [4]) it was 0.002 µM; in assay [1] (setting [5]), 0.004 µM.

`CCc1ccc(C(=O)Nc2ccc(F)c([C@@]3(C)N=C(N)[C@@]4(CF)CC[C@@H]3S4(=O)=O)c2)nc1` [Example 101, N-(3-((1S,2R,5R)-4-amino-5-(fluoromethyl)-2-methyl-8,8-dioxido-8-thia-3-azabicyclo[3.2.1]oct-3-en-2-yl)-4-fluorophenyl)-5-ethyl-2-pyridinecarboxamide]: the IC50 at Cathepsin D (Cat D) (average IC50, first procedure) amounted to 1850 µM; at BACE1 (setting [4]), 0.026 µM; in assay [1] (setting [5]) it was 0.012 µM.

Consider `CC#CCOc1cnc(C(=O)Nc2ccc(F)c([C@@]3(C)N=C(N)[C@]4(CF)CC[C@H]3S4(=O)=O)c2)cn1` [Example 95, N-(3-((1R,2R,5S)-4-amino-5-(fluoromethyl)-2-methyl-8,8-dioxido-8-thia-3-azabicyclo[3.2.1]oct-3-en-2-yl)-4-fluorophenyl)-5-(2-butyn-1-yloxy)-2-pyrazinecarboxamide], for which the IC50 at Cathepsin D (Cat D) (average IC50, first procedure) turned out to be 603 µM; on BACE1 (setting [4]) it was 0.007 µM; in assay [1] (setting [5]), 0.003 µM.

For the compound `C[C@]1(c2cc(NC(=O)c3ccc(C#N)cc3F)ccc2F)N=C(N)[C@@]2(C)CC[C@@H]1S2(=O)=O` [Example 127, N-(3-((1S,2R,5R)-4-amino-2,5-dimethyl-8,8-dioxido-8-thia-3-azabicyclo[3.2.1]oct-3-en-2-yl)-4-fluorophenyl)-4-cyano-2-fluorobenzamide], the IC50 was above 400 µM at Cathepsin D (Cat D) (average IC50, first procedure); 0.056 µM at BACE1 (setting [4]); 0.025 µM in assay [1] (setting [5]).

Turning to `COc1cnc2c(Nc3ccc(F)c([C@@]4(C)N=C(N)[C@@]5(C)CCC[C@@H]4S5(=O)=O)c3)nccc2n1` [Example 1, (1R,4R,5S)-2-Amino-4-(2-fluoro-5-((2-methoxypyrido[3,4-b]pyrazin-5-yl)amino)phenyl)-1,4-dimethyl-9-thia-3-azabicyclo[3.3.1]non-2-ene 9,9-dioxide], the IC50 on Cathepsin D (Cat D) came to 45.8 µM; on BACE1 (setting [2]), 0.037 µM; in assay [1] (setting [3]), 0.057 µM.

As for `C[C@]1(c2cc(NC(=O)c3ccc(C#CC4CC4)cn3)ccc2F)N=C(N)[C@@]2(C)CC[C@@H]1S2(=O)=O` [Example 64, N-(3-((1S,2R,5R)-4-amino-2,5-dimethyl-8,8-dioxido-8-thia-3-azabicyclo[3.2.1]oct-3-en-2-yl)-4-fluorophenyl)-5-(cyclopropylethynyl)-2-pyridinecarboxamide], the IC50 at Cathepsin D (Cat D) (average IC50, first procedure) is 470 µM; on BACE1 (setting [4]) it was 0.001 µM; in assay [1] (setting [5]) it was 0.005 µM.

As for `Cc1cc(OC(F)F)cnc1C(=O)Nc1ccc(F)c([C@@]2(C)N=C(N)[C@]3(C)CCC[C@@]2(C)S3(=O)=O)c1` [Example 14, N-(3-((1R,2R,5S)-4-Amino-1,2,5-trimethyl-9,9-dioxido-9-thia-3-azabicyclo[3.3.1]non-3-en-2-yl)-4-fluorophenyl)-5-(difluoromethoxy)-3-methylpicolinamide], the IC50 at Cathepsin D (Cat D) is 17.7 µM; at BACE1 (setting [2]), 0.009 µM; in assay [1] (setting [3]), 0.002 µM.

On to `Cc1cc(C(F)(F)F)cnc1C(=O)Nc1ccc(F)c([C@@]2(C)N=C(N)[C@@]3(C)CC[C@]2(C)S3(=O)=O)c1` [Example 48, N-(3-((1S,2R,5R)-4-amino-1,2,5-trimethyl-8,8-dioxido-8-thia-3-azabicyclo[3.2.1]oct-3-en-2-yl)-4-fluorophenyl)-3-methyl-5-(trifluoromethyl)-2-pyridinecarboxamide], for which the half-maximal inhibitory concentration (IC50) amounted to 54.1 µM at Cathepsin D (Cat D) (average IC50, first procedure); 0.011 µM at BACE1 (setting [4]); 0.004 µM in assay [1] (setting [5]).

As for `COc1cnc(C(=O)Nc2ccc(F)c([C@@]3(C)N=C(N)[C@]4(C)CCC[C@@]3(C)S4(=O)=O)c2)cn1` [Example 16, N-(3-((1R,2R,5S)-4-Amino-1,2,5-trimethyl-9,9-dioxido-9-thia-3-azabicyclo[3.3.1]non-3-en-2-yl)-4-fluorophenyl)-5-methoxypyrazine-2-carboxamide], the IC50 on Cathepsin D (Cat D) stood at 85.2 µM; on BACE1 (setting [2]), 0.02 µM; in assay [1] (setting [3]), 0.016 µM.

On to `Cc1cc(Cl)cnc1C(=O)Nc1ccc(F)c([C@]2(C)N=C(N)[C@]3(C)CC[C@H]2S3(=O)=O)c1` [Example 34, N-(3-((1R,2S,5S)-4-amino-2,5-dimethyl-8,8-dioxido-8-thia-3-azabicyclo[3.2.1]oct-3-en-2-yl)-4-fluorophenyl)-5-chloro-3-methyl-2-pyridinecarboxamide], for which the IC50 is 4310 µM at Cathepsin D (Cat D), 4.54 µM at BACE1 (setting [2]) and 2.03 µM in assay [1] (setting [3]).
